Experimental data as given in PMC9189845, “Structure–Activity Relationships of 8-Hydroxyquinoline-Derived Mannich Bases with Tertiary Amines Targeting Multidrug-Resistant Cancer” (Journal of Medicinal Chemistry, 2022).
Read-outs that look alike come from different tables or passages of the source.

Legend:
A431 cells = assay: PrestoBlue viability assay, A431 cells
MES-SA cells = assay: PrestoBlue viability assay, MES-SA cells; settings: Homo sapiens, MES-SA
A431-B1 cells = assay: PrestoBlue viability assay, A431-B1 (A431-ABCB1) cells; settings: for SR (A431 / A431-B1): fraction of IC50 in P-gp negative vs positive cells
MES-SA/Dx5 cells = assay: PrestoBlue viability assay, MES-SA/Dx5 cells (MDR, P-gp positive); settings: for IC50: Homo sapiens; for SR_TQ: selectivity ratio MES-SA vs MES-SA/Dx5, with TQ; for SR: selectivity ratio MES-SA vs MES-SA/Dx5, without TQ
[1] = Homo sapiens, A-431, 72 h, read-out: IC50 / µM A431, 72 h incubation
[2] = Homo sapiens, A-431, read-out: pIC50 A431, SARM figure (converted)
[3] = 72 h, read-out: IC50 / μM MES-SA, absence of TQ, 72 h incubation
[4] = read-out: IC50 / μM MES-SA (values in parentheses), presence of 1 μM P-gp inhibitor tariquidar (TQ)
[5] = read-out: pIC50 value MES-SA+TQ, MES-SA cells, with TQ (converted)
[6] = read-out: pIC50 value MES-SA, MES-SA cells, without TQ (converted)
[7] = 72 h, read-out: IC50 / µM A431-B1, 72 h incubation
[8] = read-out: pIC50 A431-B1, SARM figure (converted)
[9] = MES-SA/Dx5, 72 h, read-out: IC50 / μM MES-SA/Dx5, absence of TQ, 72 h incubation
[10] = MES-SA/Dx5, read-out: IC50 / μM MES-SA/Dx5 (values in parentheses), presence of 1 μM P-gp inhibitor tariquidar (TQ)
[11] = MES-SA/Dx5, read-out: pIC50 value MES-SA/Dx5 + TQ, MES-SA/Dx5 cells, with TQ (converted)
[12] = MES-SA/Dx5, read-out: pIC50 value MES-SA/Dx5, MES-SA/Dx5 cells, without TQ (converted)

Structure (SMILES) | IC50 (A431 cells; [1]) | IC50 (A431 cells; [2]) | IC50 (MES-SA cells; [3]) | IC50 (MES-SA cells; [4]) | IC50 (MES-SA cells; read-out: pIC50 MES-SA_TQ, presence of 1 μM TQ (converted), SARM figure) | IC50 (MES-SA cells; [5]) | IC50 (MES-SA cells; [6]) | IC50 (A431-B1 cells; [7]) | IC50 (A431-B1 cells; [8]) | IC50 (MES-SA/Dx5 cells; [9]) | IC50 (MES-SA/Dx5 cells; [10]) | IC50 (MES-SA/Dx5 cells; MES-SA/Dx5, read-out: pIC50 Dx5_TQ, presence of 1 μM TQ (converted), SARM figure) | IC50 (MES-SA/Dx5 cells; [11]) | IC50 (MES-SA/Dx5 cells; [12]) | SR_TQ (MES-SA/Dx5 cells) | SR (MES-SA/Dx5 cells) | SR (A431 / A431-B1) (A431-B1 cells) | SR (MES-SA_TQ / Dx5_TQ) (values in parentheses) (MES-SA/Dx5 cells; fraction of IC50 in P-gp negative vs positive cells, presence of 1 μM TQ) | IC50 (A431 cells; read-out: IC50 / µM A431, 72 h incubation)
CCCOCc1cc(CN2CCCCC2)c(O)c2ncccc12 [Compound 23] | 6.72 ± 0.57 µM | 6.76 µM | 3.72 ± 0.25 µM | 3.55 ± 0.08 µM | 3.8 µM | 3.55 µM | 3.72 µM | 1.53 ± 0.55 µM | 1.45 µM | 0.34 ± 0.02 µM | 2.4 ± 0.04 µM | 2.75 µM | 2.4 µM | 0.339 µM | 1.48 | 10.97 | – | – | –
CC1CCN(Cc2cc(COC(C)C)c3cccnc3c2O)CC1 [Compound 28] | 7.24 ± 1.78 µM | 7.08 µM | 2.84 ± 0.35 µM | 3.02 ± 0.09 µM | – | 3.02 µM | 2.82 µM | 1.72 ± 0.15 µM | 1.7 µM | 0.36 ± 0.04 µM | 2.15 ± 0.22 µM | – | 2.14 µM | 0.355 µM | 1.41 | 7.96 | – | – | –
COCc1cc(CN2CCN(c3ccccc3)CC2)c(O)c2ncccc12 [Compound 39] | 9.99 ± 4.76 µM | 8.91 µM | 1.08 ± 0.15 µM | 1.2 ± 0.05 µM | – | 1.2 µM | 1.07 µM | 2.33 ± 0.35 µM | 2.29 µM | 0.48 ± 0.07 µM | 0.85 ± 0.08 µM | – | 0.851 µM | 0.479 µM | 1.41 | 2.23 | – | – | –
CC1CCN(Cc2cc(Cl)c3cccnc3c2O)CC1 [Compound 25] | 8.93 ± 1.44 µM | 8.71 µM | 2.7 ± 0.21 µM | 2.88 µM | – | 2.88 µM | 2.69 µM | 1.46 ± 0.08 µM | 1.45 µM | 0.26 ± 0.04 µM | 1.59 µM | – | 1.58 µM | 0.257 µM | 1.82 | 10.37 | – | – | –
Oc1c(CN2CCCCCC2)cc(Cl)c2cccnc12 [Compound 53] | 5.57 ± 1.08 µM | 5.5 µM | 2.76 ± 0.14 µM | 2.64 ± 0.27 µM | – | 2.63 µM | 2.75 µM | 2.94 ± 1.69 µM | 2.57 µM | 0.33 ± 0.06 µM | 2 ± 0.19 µM | – | 2 µM | 0.324 µM | 1.32 | 8.4 | – | – | –
OCCN(CCO)Cc1cc(Cl)c2cccnc2c1O [Compound 6] | 73.6 ± 0.75 µM | – | 31.2 ± 4.04 µM | 25.3 µM | – | 25.1 µM | 30.9 µM | 20.5 ± 0.95 µM | – | 5.28 ± 1.28 µM | 15.4 µM | – | – | 5.13 µM | 1.64 | 5.91 | 3.60 | 1.64 | –
Oc1c(CN2CCCC2)ccc2cccnc12 [Compound 2] | 18.2 ± 1.02 µM | 16.6 µM | 4.64 ± 0.82 µM | 3.98 µM | – | 3.98 µM | 4.57 µM | – | 3.16 µM | 1.47 ± 0.25 µM | 2.82 µM | – | 2.82 µM | 1.45 µM | 1.41 | 3.16 | – | – | 17.1 ± 4.65 µM
COCc1cc(CN2CCC(C)CC2)c(O)c2ncccc12 [Compound 26] | 14.5 ± 3.84 µM | 13.8 µM | 6.2 ± 0.66 µM | 6.47 ± 0.41 µM | – | 6.46 µM | 6.17 µM | 2.29 ± 0.28 µM | 2.29 µM | 0.58 ± 0.05 µM | 4.68 ± 0.16 µM | – | 4.68 µM | 0.575 µM | 1.38 | 10.73 | – | – | –
COCc1cc(CN2CCCC2)c(O)c2ncccc12 [Compound 17] | 53.2 ± 6.49 µM | 52.5 µM | 11.1 ± 1.78 µM | 10.5 ± 0.17 µM | – | 10.5 µM | 11 µM | 4.05 ± 0.07 µM | 4.07 µM | 1.37 ± 0.26 µM | 3.59 ± 0.53 µM | – | 3.55 µM | 1.35 µM | 2.92 | 8.09 | – | – | –
Oc1c(CN2CCOCC2)ccc2cccnc12 [Compound 8] | 14.5 ± 0.32 µM | – | 7.55 ± 0.91 µM | – | – | – | 7.41 µM | 6.51 ± 0.65 µM | – | 4.33 ± 0.31 µM | – | – | – | 4.27 µM | – | 1.75 | 2.23 | – | –
